We go through three molecules from patent US20250177421A1, “METHOD FOR PREVENTING OR TREATING HEARING LOSS” (MACKAY MEDICAL COLLEGE, priority 2022, published 2025).

The test system of data set [1] is cisplatin-injected mice. The data set is described as follows: Loss of outer hair cells (OHCs) count in cochlear tissues, cisplatin-induced SNHL in mice. Format: in vivo. How it is done: (§1) The used procedures followed the protocol reported by Wu et al.^[3]. Inositol hexaphosphate (IP6) obtained from Sigma (USA) was dissolved in ddH2O, and the doses given to the experimental mice intraperitoneally were 40 mg/kg and 80 mg/kg (100 μL of IP6). […] The mice of the control group received only phosphate-buffered saline (PBS, 100 μL).
Experimental mice were anesthetized, and their cochlear tissues were isolated and dissected. For whole-mount dissection, the protocol detailed by Neal et al. was followed^[5]. In brief, the cochlea was decalcified for 1 hour using a decalcification solution purchased from Apex Engineering (Aurora, IL, USA). The excess temporal bone around the cochlea was trimmed, and the cochlea was bisected along the midmodiolar plane and then submerged in phosphate buffered saline (PBS). A series of cuts through the modiolus separated the half-turns from one another. […]
For the loss of OHCs counts, hair cells (HCs) were counterstained with phalloidin, Myo7A and DAPI stainings. […] The images at three randomly-selected regions (300 μm length) in the apical, middle, and basal cochlear turns were acquired by using the same apparatus, and the loss of OHCs was manually counted. Average loss of OHCs was then calculated in apex, middle and base regions, respectively^[6]. Fluorescent images were taken with a Leica SP8 confocal fluorescence microscope. […]

Data set [2] relates to cisplatin-injected mice. The data set is described as follows: Auditory brainstem response (ABR) hearing threshold, cisplatin-induced SNHL in mice. The data set is classed as in vivo. The conditions noted are these: cisplatin-injected mice (3 mg/kg IP, 5 days) with IP6 40 or 80 mg/kg IP; measured one week later.
Details of data set [3]: species or system mice. The conditions noted are these: mouse, in vivo. The protocol: as §1
In data set [4] the test system is kanamycin/furosemide-injected mice. Nature of the data set: ABR hearing threshold, kanamycin/furosemide-induced SNHL in mice. The conditions noted are these: IP6 80 mg/kg or fucoxanthin 60 mg/kg IP for 5 consecutive days. The data set is classed as in vivo. The protocol:
For the kanamycin-induced SNHL in mice, the schematic protocol for the dosing and timing of kanamycin, furosemide, IP6 and/or fucoxanthin was presented in FIG. 1B. Kanamycin (Sigma Aldrich, USA) was dissolved in PBS, and kanamycin (1 mg/g) and furosemide (0.1 mg/g, Sigma Aldrich, USA) were injected as a single dose on the first day. Specifically, furosemide was intraperitoneally injected within 30 min after kanamycin was injected subcutaneously (SC). One hour later, IP6 and/or fucoxanthin was intraperitoneally injected for 5 consecutive days. The ABR of mice was measured to evaluate their hearing threshold. In brief, measurements were performed on the scalps of mice under anesthesia by using subdermal needle electrodes placed at the vertex, below the pinna of the left ear (as a reference measurement), and below the contralateral ear (ground). The sound stimuli included clicks ([…]; 4, 8, and 12 kHz). The devices used for ABR measurement were specifically designed for animal experiments (BIOPAC System, USA). […] The ABR threshold was measured through detection of the presence of V waves. […] One week later, the hearing threshold of all groups of mice was measured using ABR instrument. […]

Data set [5] has the same test system. The data set is described as follows: Loss of OHCs in cochlear tissues (immunohistochemical staining), kanamycin/furosemide-induced SNHL in mice. The conditions noted are these: IP6 80 mg/kg IP for 5 days in kanamycin/furosemide-injected mice. Format: in vivo. How it is done:
For the kanamycin-induced SNHL in mice, the schematic protocol for the dosing and timing of kanamycin, furosemide, IP6 and/or fucoxanthin was presented in FIG. 1B. Kanamycin (Sigma Aldrich, USA) was dissolved in PBS, and kanamycin (1 mg/g) and furosemide (0.1 mg/g, Sigma Aldrich, USA) were injected as a single dose on the first day. Specifically, furosemide was intraperitoneally injected within 30 min after kanamycin was injected subcutaneously (SC). One hour later, IP6 and/or fucoxanthin was intraperitoneally injected for 5 consecutive days. Experimental mice were anesthetized, and their cochlear tissues were isolated and dissected. For whole-mount dissection, the protocol detailed by Neal et al. was followed^[5]. In brief, the cochlea was decalcified for 1 hour using a decalcification solution purchased from Apex Engineering (Aurora, IL, USA). […] The images at three randomly-selected regions (300 μm length) in the apical, middle, and basal cochlear turns were acquired by using the same apparatus, and the loss of OHCs was manually counted. Average loss of OHCs was then calculated in apex, middle and base regions, respectively^[6]. Fluorescent images were taken with a Leica SP8 confocal fluorescence microscope. […] One week later, the hearing threshold of all groups of mice was measured using ABR instrument. […]

Data set [6] relates to mouse cochlear tissues. Nature of the data set: NanoString neuropathology gene expression analysis of cochlear tissues. The data set is classed as in vivo, mice. How it is done: Total mRNA was extracted from mouse cochlear tissues as per the protocol described in previous studies^[10, 11]. The expression profile of neuropathological genes was analyzed using a NanoString mouse neuropathology panel (NanoString Technologies, Seattle, WA, USA), which includes genes involved in neural cell types and neuropathological processes^[12, 13]. All analyses of genes or pathways scores were performed in accordance with the user manual of the nCounter Advanced Analysis Software and were described in detail in previous studies^[10, 11]. Cold Spring Biotech in Taiwan was responsible for performing the NanoString gene expression analysis and bioinformatics analyses.

Data set [7] relates to aging mice. The data set is described as follows: ABR hearing threshold, age-related hearing loss (ARHL) mouse model. The data set is classed as in vivo. The conditions noted are these: IP6 drink group (2% IP6 in drinking water for 10 months), 12-month-old mice.
The test system of data set [8] is 12-month-old C57BL/6J mice. The data set is described as follows: Loss of OHCs and IHCs in cochlear tissues (immunohistochemical staining), ARHL mouse model. The data set is classed as in vivo. The conditions noted are these: 12-month-old mice.
Where [9] appears, read: 2% IP6 through drinking water for 10 months.
The mark [10] stands for this setting: IP6 80 mg/kg IP three days per week for 10 months.

For `O=P(O)(O)O[C@H]1[C@H](OP(=O)(O)O)[C@@H](OP(=O)(O)O)[C@H](OP(=O)(O)O)[C@@H](OP(=O)(O)O)[C@H]1OP(=O)(O)O` [IP6, inositol hexaphosphate], the “loss of OHCs (Myo7A+) in the apex, middle, and base regions” value (“loss of OHCs … middle, and base regions” below) in data set [1] (IP6 80 mg/kg IP 2 h before cisplatin 3 mg/kg IP, once per day for 5 days, compared with cisplatin-injected mice without IP6) is “significantly reduced”. In addition, the “hearing threshold (ABR) after IP6 treatment” value in data set [2] is recorded as 20 to 30 db. Moreover, in data set [3], the “serum alanine aminotransferase (ALT)” value is “no difference”, the “serum aspartate aminotransferase (AST)” value is on record as “no difference” and the serum total bilirubin result is “no difference”. Further, in data set [4], the “hearing threshold (ABR) of kanamycin/furosemide-injected mice” value is “significant reduction”. The “loss of OHCs (Myo7A+) in the apex, middle and base regions of the cochlear tissues” value in data set [5] was “significantly reduced”. Further, the “carbohydrate metabolism: mRNA levels of Akt3, Slc1a1, and Slc1a2” value in data set [6] (IP6 treatment) is on record as “upregulated”. Moreover, in data set [6] (IP6 treatment, P<0.05), the “lipid metabolism: mRNA levels of Cers6, Dgkb, Dgke, B4galt6, and Pla2g4c” value was “upregulated”. Besides, the “microglia gene score: mRNA levels of Amigo1, Atp6v1a, and Ap3m2” value in data set [6] (after IP6 treatment (80 mg/kg), kanamycin/furosemide-injected mice, P<0.05) was “significantly upregulated”. Moreover, the “endothelial cell gene score: mRNA levels of Nrxn1 and Prkcb” value in data set [6] (after IP6 treatment (80 mg/kg), Nrxn1 P<0.01, Prkcb P<0.05) was “significantly upregulated”. Besides, the “neuron score genes (Plcb4, Cacna1a, Calb1, Hen1, Cur1, Arhgap44, Gria4, Scn1a, Grik2, Cntnap1, Shank2, Lrrc4, Rab3a, Nrxn1, Adora1, Pak1, Frmpd4, Scn2a1, Dagla, Atcay)” value in data set [6] (after IP6 treatment (80 mg/kg), P<0.01) was “significantly upregulated”. Further, the “myelination gene score: mRNA levels of Cntnap1, Scn2a1, and Amigo1” value in data set [6] (after IP6 treatment, Cntnap1 P<0.01, Scn2a1 and Amigo1 P<0.05) is “significantly upregulated”. Further, the “vesicle trafficking gene scores: mRNA levels of Cacna1a, Calb1, Gabrb2, Syt4, Cnr1, Gria4, Grik2, Rims1, Cacnb4, Stx1b, Shank2, Fgf14, Syt13, Rab3a, Ncam1, Nrxn1, Adora1, Nova1, Gabra1, Rit2” value in data set [6] (after IP6 treatment, P<0.01) is recorded as “significantly upregulated”. The “transcriptional patterns of astrocytes, endothelial cells, microglia, and neurons” value in data set [6] (kanamycin/furosemide-injected mice, 80 mg/kg IP6) was “reversed”. In addition, the “hearing function at the frequency of 12 kHz compared with the control group” value in data set [7] was “significantly improved”. Further, in data set [8] (setting [9]), the “loss of IHCs (Myo7A+) in the base regions” value is given as “moderately mitigated”; the “loss of OHCs … middle, and base regions” value is on record as “moderately mitigated”. In data set [8] (setting [10]), the “loss of IHCs (Myo7A+) in the base regions” value is “moderately mitigated”; the “loss of OHCs … middle, and base regions” value is on record as “moderately mitigated”.

`N.N.[Cl][Pt][Cl]` [cisplatin, reference compound]: in data set [1] (cisplatin 3 mg/kg IP once per day for 5 days, compared with the control group), the “loss of OHCs … middle, and base regions” value is “significant loss”. In data set [3], the “serum alanine aminotransferase (ALT)” value is “no difference”, the “serum aspartate aminotransferase (AST)” value is given as “no difference” and the serum total bilirubin result is listed as “no difference”.

For fucoxanthin, the “hearing threshold (ABR) of kanamycin/furosemide-injected mice” value in data set [4] is listed as “significant reduction”.
